From the NIST ThermoML archive (doi:10.1021/je050544m)
± gives the expanded uncertainty stated by the source.

Assay: activity coefficient (dimensionless); of the first substance listed, at infinite dilution; xn = mol fraction of the nth substance listed
Details: 101 kPa, Liquid, Chromatography, x1 = 0

SMILES	activity coefficient (323 K)	activity coefficient (343 K)
ClC(Cl)(Cl)Cl [tetrachloromethane] + CCCCCCn1cc[n+](C)c1.F[B-](F)(F)F	3.3 ± 0.35	3.61 ± 0.38
ClC(Cl)(Cl)Cl [tetrachloromethane] + CCCCn1cc[n+](C)c1.F[B-](F)(F)F	5.5 ± 0.58	5.73 ± 0.6
Cc1ccccc1 [toluene] + CCCCCCCC[n+]1ccn(C)c1.F[B-](F)(F)F	1.75 ± 0.18	1.82 ± 0.19
Cc1ccccc1 [toluene] + CCCCCCn1cc[n+](C)c1.F[B-](F)(F)F	–	2.61 ± 0.27
Cc1ccccc1 [toluene] + CCCCn1cc[n+](C)c1.F[B-](F)(F)F	4.14 ± 0.44	4.13 ± 0.43
Cc1ccccc1 [toluene] + CCn1cc[n+](C)c1.F[B-](F)(F)F	–	4.03 ± 0.42
ClC=C(Cl)Cl [trichloroethene] + CCCCCCCC[n+]1ccn(C)c1.F[B-](F)(F)F	1.67 ± 0.17	1.76 ± 0.18
ClC=C(Cl)Cl [trichloroethene] + CCCCCCn1cc[n+](C)c1.F[B-](F)(F)F	–	2.53 ± 0.27
ClC=C(Cl)Cl [trichloroethene] + CCCCn1cc[n+](C)c1.F[B-](F)(F)F	3.98 ± 0.42	4.32 ± 0.45
ClC=C(Cl)Cl [trichloroethene] + CCn1cc[n+](C)c1.F[B-](F)(F)F	3.66 ± 0.38	3.79 ± 0.4
ClC(Cl)Cl [trichloromethane] + CCCCCCCC[n+]1ccn(C)c1.F[B-](F)(F)F	0.62 ± 0.07	0.7 ± 0.07
ClC(Cl)Cl [trichloromethane] + CCCCCCn1cc[n+](C)c1.F[B-](F)(F)F	0.81 ± 0.08	0.92 ± 0.09
ClC(Cl)Cl [trichloromethane] + CCCCn1cc[n+](C)c1.F[B-](F)(F)F	1.13 ± 0.12	1.29 ± 0.13
ClC(Cl)Cl [trichloromethane] + CCn1cc[n+](C)c1.F[B-](F)(F)F	0.73 ± 0.08	0.84 ± 0.09
